Activity calls are given as the source filed them. The calls are words filed in the database; no cut-off is given here.
How the values were obtained:
[1] = molecular target: T1, RAC-alpha serine/threonine-protein kinase (Homo sapiens, UniProt P31749); assay: Inhibition of AKT1 (unknown origin) using biotin-labelled STK as substrate measured after 45 mins by HTRF method
[2] = molecular target: T1, RAC-alpha serine/threonine-protein kinase; assay: Inhibition of AKT1 (unknown origin) at 1 uM using biotin-labelled STK as substrate measured after 45 mins by HTRF method relative to control
PC-3 [3] = assay: Antiproliferative activity against human PC3 cells after 72 hrs by MTT assay; format: functional, cell-based; conditions: PC-3, 72 h
[4] = molecular target: Ribosomal protein S6 kinase alpha-1 (Homo sapiens) (UniProt Q15418); assay: Inhibition of RSK1 (unknown origin) at 1 uM after 40 mins by scintillation counting method relative to control
[5] = molecular target: Ribosomal protein S6 kinase (Homo sapiens) (UniProt P51812+Q9UBS0+O75676+Q15349+O75582+P23443+Q9UK32+Q15418); assay: Inhibition of p70S6K (unknown origin) at 1 uM after 40 mins by scintillation counting method relative to control; format: protein assay
[6] = molecular target: Cyclin-dependent kinase 1 (Homo sapiens) (UniProt P06493); assay: Inhibition of CDK1 (unknown origin) at 1 uM after 40 mins by scintillation counting method relative to control
[7] = molecular target: RAF proto-oncogene serine/threonine-protein kinase (Homo sapiens) (UniProt P04049); assay: Inhibition of RAF1 (unknown origin) at 1 uM after 40 mins by scintillation counting method relative to control
[8] = molecular target: Rho-associated protein kinase 1 (Homo sapiens) (UniProt Q13464); assay: Inhibition of ROCK1 (unknown origin) at 1 uM after 40 mins by scintillation counting method relative to control
[9] = molecular target: T1, RAC-alpha serine/threonine-protein kinase; assay: Inhibition of AKT1 (unknown origin) at 10 nM after 40 mins by scintillation counting method relative to control
[10] = molecular target: RAC-beta serine/threonine-protein kinase (Homo sapiens) (UniProt P31751); assay: Inhibition of AKT2 (unknown origin) at 10 nM after 40 mins by scintillation counting method relative to control
[11] = molecular target: RAC-gamma serine/threonine-protein kinase (Homo sapiens) (UniProt Q9Y243); assay: Inhibition of AKT3 (unknown origin) at 10 nM after 40 mins by scintillation counting method relative to control
Homo sapiens = species on record: Homo sapiens; assay: Selectivity ratio of compound effect for inhibition of AKT1 (unknown origin) to compound effect for inhibition of AKT2 (unknown origin)
[12] = molecular target: T1, RAC-alpha serine/threonine-protein kinase; assay: Inhibition of AKT in human PC3 cells assessed as reduction in GSK3beta phosphorylation at 1 to 10 uM after 4 hrs by Western blot analysis; format: cell-based
PC-3 [13] = assay: Induction of apoptosis in human PC3 cells assessed as early apoptotic cells at 1 uM after 48 hrs by Annexin V-FITC/propidium iodide staining based flow cytometry (reference value: 1.05%); format: functional
PC-3 [14] = assay: Induction of apoptosis in human PC3 cells assessed as late apoptotic cells at 1 uM after 48 hrs by Annexin V-FITC/propidium iodide staining based flow cytometry (reference value: 0.27%); format: functional
PC-3 [15] = assay: Induction of apoptosis in human PC3 cells assessed as necrotic cells at 1 uM after 48 hrs by Annexin V-FITC/propidium iodide staining based flow cytometry (reference value: 1.48%); format: functional
PC-3 [16] = assay: Induction of apoptosis in human PC3 cells assessed as live cells at 5 uM after 48 hrs by Annexin V-FITC/propidium iodide staining based flow cytometry (reference value: 97.19%); format: functional
PC-3 [17] = assay: Induction of apoptosis in human PC3 cells assessed as late apoptotic cells at 5 uM after 48 hrs by Annexin V-FITC/propidium iodide staining based flow cytometry (reference value: 0.27%); format: functional
PC-3 [18] = assay: Induction of apoptosis in human PC3 cells assessed as live cells at 10 uM after 48 hrs by Annexin V-FITC/propidium iodide staining based flow cytometry (reference value: 97.19%); format: functional
PC-3 [19] = assay: Induction of apoptosis in human PC3 cells assessed as necrotic cells at 10 uM after 48 hrs by Annexin V-FITC/propidium iodide staining based flow cytometry (reference value: 1.48%); format: functional

T1 sequence (P31749 whole entry): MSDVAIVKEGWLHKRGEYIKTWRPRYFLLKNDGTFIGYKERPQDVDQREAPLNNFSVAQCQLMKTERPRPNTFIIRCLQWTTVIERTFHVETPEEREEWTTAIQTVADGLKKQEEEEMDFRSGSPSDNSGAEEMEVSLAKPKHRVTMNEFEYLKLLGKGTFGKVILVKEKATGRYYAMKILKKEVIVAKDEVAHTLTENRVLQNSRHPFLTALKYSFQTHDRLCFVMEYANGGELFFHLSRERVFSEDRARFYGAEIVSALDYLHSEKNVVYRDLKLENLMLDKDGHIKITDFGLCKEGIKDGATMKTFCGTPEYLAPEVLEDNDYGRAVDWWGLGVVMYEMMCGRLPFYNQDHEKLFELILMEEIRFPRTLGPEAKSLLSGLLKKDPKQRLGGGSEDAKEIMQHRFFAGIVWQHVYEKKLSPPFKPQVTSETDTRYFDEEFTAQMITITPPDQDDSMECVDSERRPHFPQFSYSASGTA
Chain of Ribosomal protein S6 kinase alpha-1 (Homo sapiens) (Q15418 whole entry): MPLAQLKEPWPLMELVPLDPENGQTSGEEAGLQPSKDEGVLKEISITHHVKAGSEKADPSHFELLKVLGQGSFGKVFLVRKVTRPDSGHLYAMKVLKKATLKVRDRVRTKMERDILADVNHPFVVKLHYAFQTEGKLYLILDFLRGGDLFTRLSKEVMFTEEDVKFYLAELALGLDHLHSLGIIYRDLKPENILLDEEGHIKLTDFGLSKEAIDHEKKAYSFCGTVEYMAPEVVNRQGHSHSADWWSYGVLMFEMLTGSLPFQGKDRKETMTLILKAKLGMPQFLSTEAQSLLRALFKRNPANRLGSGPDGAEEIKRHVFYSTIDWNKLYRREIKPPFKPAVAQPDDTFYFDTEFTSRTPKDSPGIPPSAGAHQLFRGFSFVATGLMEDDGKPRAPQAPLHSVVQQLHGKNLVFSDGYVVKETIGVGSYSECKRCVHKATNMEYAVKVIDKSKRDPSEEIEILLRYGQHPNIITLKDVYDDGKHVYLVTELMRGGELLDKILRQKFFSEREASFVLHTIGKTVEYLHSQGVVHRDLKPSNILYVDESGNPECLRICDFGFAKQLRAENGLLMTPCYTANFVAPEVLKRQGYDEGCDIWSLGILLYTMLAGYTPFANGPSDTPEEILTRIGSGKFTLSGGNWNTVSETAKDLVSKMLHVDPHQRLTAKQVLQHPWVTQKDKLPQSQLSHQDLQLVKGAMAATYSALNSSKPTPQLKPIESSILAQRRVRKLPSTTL
Chain of RAC-gamma serine/threonine-protein kinase (Homo sapiens) (Q9Y243 whole entry): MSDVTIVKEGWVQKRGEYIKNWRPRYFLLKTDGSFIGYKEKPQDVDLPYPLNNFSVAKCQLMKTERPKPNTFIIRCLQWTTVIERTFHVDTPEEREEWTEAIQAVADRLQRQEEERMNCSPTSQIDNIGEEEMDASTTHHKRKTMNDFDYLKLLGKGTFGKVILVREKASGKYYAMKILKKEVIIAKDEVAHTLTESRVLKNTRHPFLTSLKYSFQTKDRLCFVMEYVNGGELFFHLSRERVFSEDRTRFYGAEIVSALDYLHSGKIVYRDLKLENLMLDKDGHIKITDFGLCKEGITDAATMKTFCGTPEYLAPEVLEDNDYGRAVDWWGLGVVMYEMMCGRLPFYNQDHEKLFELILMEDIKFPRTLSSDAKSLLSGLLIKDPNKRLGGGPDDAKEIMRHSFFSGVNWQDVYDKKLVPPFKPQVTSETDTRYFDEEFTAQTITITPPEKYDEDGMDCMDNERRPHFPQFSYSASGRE
Chain of Cyclin-dependent kinase 1 (Homo sapiens) (P06493 whole entry, looked up): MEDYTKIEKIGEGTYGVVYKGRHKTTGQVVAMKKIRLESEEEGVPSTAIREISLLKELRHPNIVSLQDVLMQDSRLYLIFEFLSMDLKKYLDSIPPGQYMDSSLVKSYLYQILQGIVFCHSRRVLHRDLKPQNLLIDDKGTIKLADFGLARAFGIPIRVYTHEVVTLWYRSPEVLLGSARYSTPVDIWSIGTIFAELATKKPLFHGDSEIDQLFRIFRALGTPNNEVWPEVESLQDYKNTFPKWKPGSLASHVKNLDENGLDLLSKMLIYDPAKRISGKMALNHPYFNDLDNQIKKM
Chain of RAC-beta serine/threonine-protein kinase (Homo sapiens) (P31751 whole entry): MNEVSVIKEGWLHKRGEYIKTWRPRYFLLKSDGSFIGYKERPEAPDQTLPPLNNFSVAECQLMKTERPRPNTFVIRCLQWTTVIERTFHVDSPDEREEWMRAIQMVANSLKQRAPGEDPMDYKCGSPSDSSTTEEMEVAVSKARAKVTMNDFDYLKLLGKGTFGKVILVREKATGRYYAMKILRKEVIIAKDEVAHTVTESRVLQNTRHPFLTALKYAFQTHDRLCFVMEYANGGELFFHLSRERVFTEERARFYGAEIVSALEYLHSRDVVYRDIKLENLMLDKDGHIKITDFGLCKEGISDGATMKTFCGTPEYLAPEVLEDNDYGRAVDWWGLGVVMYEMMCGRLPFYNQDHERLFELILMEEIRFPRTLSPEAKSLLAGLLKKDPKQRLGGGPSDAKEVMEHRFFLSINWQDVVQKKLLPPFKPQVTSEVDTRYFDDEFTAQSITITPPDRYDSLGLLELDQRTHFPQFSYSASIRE
Chain of RAF proto-oncogene serine/threonine-protein kinase (Homo sapiens) (P04049 whole entry): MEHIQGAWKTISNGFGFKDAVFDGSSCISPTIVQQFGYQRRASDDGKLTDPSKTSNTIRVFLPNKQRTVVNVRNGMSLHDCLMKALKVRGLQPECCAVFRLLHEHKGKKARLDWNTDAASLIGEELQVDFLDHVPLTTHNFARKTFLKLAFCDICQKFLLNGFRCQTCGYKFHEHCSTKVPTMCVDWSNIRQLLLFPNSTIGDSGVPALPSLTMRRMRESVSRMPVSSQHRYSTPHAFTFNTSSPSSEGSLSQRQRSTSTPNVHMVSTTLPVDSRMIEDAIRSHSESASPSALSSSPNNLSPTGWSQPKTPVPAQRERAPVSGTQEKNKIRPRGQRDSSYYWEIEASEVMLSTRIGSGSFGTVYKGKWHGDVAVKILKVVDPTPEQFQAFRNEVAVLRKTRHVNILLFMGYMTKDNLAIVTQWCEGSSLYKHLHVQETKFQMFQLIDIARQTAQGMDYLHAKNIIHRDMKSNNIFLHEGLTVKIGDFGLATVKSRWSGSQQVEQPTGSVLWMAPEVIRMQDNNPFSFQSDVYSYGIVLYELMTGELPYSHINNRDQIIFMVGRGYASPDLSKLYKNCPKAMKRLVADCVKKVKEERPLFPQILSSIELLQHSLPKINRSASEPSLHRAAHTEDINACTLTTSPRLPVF
Chain of Rho-associated protein kinase 1 (Homo sapiens) (Q13464 2-1354 limits assumed): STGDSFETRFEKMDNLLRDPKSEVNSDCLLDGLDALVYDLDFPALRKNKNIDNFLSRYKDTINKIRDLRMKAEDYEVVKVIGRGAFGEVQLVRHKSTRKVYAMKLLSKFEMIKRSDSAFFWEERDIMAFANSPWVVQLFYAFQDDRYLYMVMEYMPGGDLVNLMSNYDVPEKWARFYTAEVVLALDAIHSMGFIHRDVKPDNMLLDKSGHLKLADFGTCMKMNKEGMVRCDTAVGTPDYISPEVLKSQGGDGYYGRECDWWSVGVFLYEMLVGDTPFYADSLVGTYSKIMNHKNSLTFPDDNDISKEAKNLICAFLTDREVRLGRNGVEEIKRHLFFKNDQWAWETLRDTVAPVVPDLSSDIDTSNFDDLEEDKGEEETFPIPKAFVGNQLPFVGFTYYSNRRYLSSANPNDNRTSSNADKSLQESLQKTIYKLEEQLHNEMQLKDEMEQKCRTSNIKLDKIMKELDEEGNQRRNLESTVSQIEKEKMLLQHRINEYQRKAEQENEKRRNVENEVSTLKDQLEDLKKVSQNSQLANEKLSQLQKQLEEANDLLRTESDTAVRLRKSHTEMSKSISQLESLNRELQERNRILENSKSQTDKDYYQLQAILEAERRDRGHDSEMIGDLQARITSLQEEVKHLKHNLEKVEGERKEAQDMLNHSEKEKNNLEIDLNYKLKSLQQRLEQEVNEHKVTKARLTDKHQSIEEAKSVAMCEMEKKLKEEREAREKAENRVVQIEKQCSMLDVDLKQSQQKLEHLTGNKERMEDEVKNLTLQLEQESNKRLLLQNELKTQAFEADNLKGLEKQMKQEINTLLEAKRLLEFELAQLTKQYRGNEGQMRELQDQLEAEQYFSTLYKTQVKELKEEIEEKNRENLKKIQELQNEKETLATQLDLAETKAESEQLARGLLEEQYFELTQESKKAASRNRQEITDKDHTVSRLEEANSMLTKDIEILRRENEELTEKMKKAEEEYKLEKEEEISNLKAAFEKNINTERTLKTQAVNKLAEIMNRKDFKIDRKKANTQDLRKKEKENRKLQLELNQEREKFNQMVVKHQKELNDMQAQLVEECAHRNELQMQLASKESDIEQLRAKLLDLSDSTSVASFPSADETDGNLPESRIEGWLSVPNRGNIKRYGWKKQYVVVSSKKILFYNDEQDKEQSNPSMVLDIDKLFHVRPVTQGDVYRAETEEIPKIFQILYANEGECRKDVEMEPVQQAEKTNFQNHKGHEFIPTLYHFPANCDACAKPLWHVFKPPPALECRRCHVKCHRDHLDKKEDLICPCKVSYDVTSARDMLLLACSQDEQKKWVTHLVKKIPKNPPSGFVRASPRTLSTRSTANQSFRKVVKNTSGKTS

`O=C(N1CCN(c2ncnc3[nH]nc(Cl)c23)CC1)C1(c2ccc(Cl)c(Cl)c2)CCNCC1` gave an IC50 [1] of 24.3 nM, an inhibition [2] of 94.3% and an IC50 (PC-3 [3]) of 3700 nM. For the same compound, the inhibition [4] was 83%, the inhibition [5] was 99% and the inhibition [6] was “inactive”. The inhibition [7] was “inactive”, the inhibition [8] was “inactive” and the inhibition [9] was 82%. For the same compound, the inhibition [10] was 38%, the inhibition [11] was 93% and the Selectivity ratio (Homo sapiens) was > 2. For the same compound, the inhibition [12] was “inactive”, the Activity (PC-3 [13]) was 2.7% and the Activity (PC-3 [14]) was 4.82%. It also gave an Activity (PC-3 [15]) of 2%, an Activity (PC-3 [16]) of 88.11% and an Activity (PC-3 [17]) of 6.2%. The Activity (PC-3 [18]) was 68.92% and the Activity (PC-3 [19]) was 3.24%.

From ChEMBL document CHEMBL4257535, “Design, synthesis and biological evaluation of AKT inhibitors bearing a piperidin-4-yl appendant” (Medchemcomm, 2018)
